Reference: patent US20020016346A1, “Method for enhancing outflow of aqueous humor in treatment of glaucoma” (The Regents University of California, a California …, priority 1994, published 2002)
Read-outs that look alike come from different tables or passages of the source.

Assays:
Na+2Cl−K+ co-transporter = target: T1, Na+2Cl−K+ co-transporter (Oryctolagus cuniculus, UniProt P55015); assay: Inhibition of short circuit current in perfused cortical thick ascending limb of the loop of Henle; type: cell-based, rabbit; conditions: concentration blocking 50% of short circuit current
T1 construct: cotransporter system found in the cortical thick ascending limbs of the loop of Henle of mammals; from tissue; host or cells: dissected, perfused cortical thick ascending limb tubules of rabbit kidney
T1 sequence (P55015 1-1099): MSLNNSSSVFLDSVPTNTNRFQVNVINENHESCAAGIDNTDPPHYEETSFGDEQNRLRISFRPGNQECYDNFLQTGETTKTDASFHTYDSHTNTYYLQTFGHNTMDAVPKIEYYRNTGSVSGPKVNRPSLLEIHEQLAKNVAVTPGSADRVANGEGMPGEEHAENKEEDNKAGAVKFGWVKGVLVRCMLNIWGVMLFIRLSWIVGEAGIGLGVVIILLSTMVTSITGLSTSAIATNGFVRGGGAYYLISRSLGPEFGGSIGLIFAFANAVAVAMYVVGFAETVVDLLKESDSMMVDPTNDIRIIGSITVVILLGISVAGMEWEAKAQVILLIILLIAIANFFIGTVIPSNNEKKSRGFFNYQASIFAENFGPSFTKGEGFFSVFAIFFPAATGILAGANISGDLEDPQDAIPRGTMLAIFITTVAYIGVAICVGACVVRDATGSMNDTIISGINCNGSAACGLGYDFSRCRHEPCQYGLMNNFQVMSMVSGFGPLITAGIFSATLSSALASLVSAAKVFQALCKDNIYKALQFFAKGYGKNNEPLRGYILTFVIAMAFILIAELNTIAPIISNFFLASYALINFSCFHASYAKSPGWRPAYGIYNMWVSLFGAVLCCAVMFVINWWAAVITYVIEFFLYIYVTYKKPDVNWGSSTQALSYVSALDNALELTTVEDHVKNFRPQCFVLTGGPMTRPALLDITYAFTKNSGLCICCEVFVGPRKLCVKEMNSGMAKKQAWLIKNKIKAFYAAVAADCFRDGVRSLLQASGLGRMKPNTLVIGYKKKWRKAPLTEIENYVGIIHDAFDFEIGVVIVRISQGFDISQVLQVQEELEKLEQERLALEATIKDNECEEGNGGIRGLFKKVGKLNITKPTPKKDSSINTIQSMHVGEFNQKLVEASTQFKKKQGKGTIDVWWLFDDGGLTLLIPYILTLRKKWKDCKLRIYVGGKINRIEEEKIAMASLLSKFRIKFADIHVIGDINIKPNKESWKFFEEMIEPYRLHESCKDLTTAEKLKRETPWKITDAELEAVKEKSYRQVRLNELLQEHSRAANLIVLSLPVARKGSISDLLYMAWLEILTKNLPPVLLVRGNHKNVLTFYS
Excerpt: B. Burg et al. (Am J. Physiol. 210:1293-1298, 1966) as modified by […] Arch. 390:30-37, 1981) and […] et al. (Pflüger's Arch. 389:175-176, 1981), both of which are incorporated herein by reference in their entireties. In brief, this in vitro test uses the Na-2Cl^- K^+ cotransporter system found in the cortical thick ascending limbs of the loop of Henle of mammals, particularly rabbits, for example, female white New Zealand rabbits. The tubules are dissected and perfused according to the known techniques, but with the rate of perfusion through the lumen kept high (10-20 nl/min) to prevent changes in the ionic composition of the perfusate along the perfused tubule. As control perfusate, a solution containing (mM): NaCl 145; […] KH2PO4 0.4; MgCl2 1; Ca gluconate 1.3; and glucose 5 is used on both sides of the epithelium with pH adjusted to 7.4 The transepithelial potential (Vtc) is recorded continuously on both ends of the tubule. […] The ratio of both values ([…] the equivalent short circuit current Itc. There is a direct relationship between the decrease of Itc and the inhibition of the Na^+2Cl^-K^+ co-transporter by contact with the test compound ([…] et al., Klin. Wochenschr. 61:1019-1027, 1983). For each drug under study, dose-response curves are established by adding compounds at various concentrations to the luminal perfusate with at least three determinations for each concentration. […] Details of this method have been published previously in M. E. O'Donnell, J. Biol. Chem. 264:11559-11566, 1991, which is incorporated herein by reference in its entirety. An illustration of the use of this method is found in Example 1B of this application.

[1] = Lipophilicity (log P′), n-octanol/phosphate buffer pH 7.4 shake-flask or RP-HPLC; type: physicochemical
Experimental: The lipophilicity of a compound is expressed in terms of an octanol:water coefficient determined by the standard technique of radiolabelling the compound and introducing a small amount into equal volumes of octanol and tris buffer (50 mM, pH 7.4). Generally the lipophilicity (log P′) is expressed as the logarithm of the partition coefficient in n-octanol/phosphate buffer, pH 7.4 using the well known shake-flask method as described by Cloux, et al., J. Pharm. Belg., 43:141-151, 1973, which is incorporated herein by reference in its entirety. The coefficient of lipophilicity (log P′) of the compounds useful for topical application to decrease intra-ocular pressure is preferably at least 0.005, and more preferably at least 0.01.
The lipophilicity of the aqueous humor outflow-increasing compounds of this invention can also be determined using a reversed phase, high performance liquid chromatograph (RP-HPLC) system for determination of the log P′ of the drug as described in B. Masereel, et al. (J. Pharm. Pharmacol. 44:589-593, 1992), which is incorporated herein by reference in its entirety. Briefly, a reversed phase column (RP-18) is equilibrated with n-propanol/phosphate buffer, pH 7.4 at a ratio of 30:70). Compounds to be tested are dissolved and eluted with the same solution. A series of standards with a wide range of lipophilicity, as determined by the shake-flask method, is run and a calibration curve is established for each session. KNO3 is injected to determine the void volume and […] is determined, wherein tr is the drug retention time andot is the retention time of NO3-. Calibration curves are calculated using log P′ and log k′ values. Log P′ values of other compounds are obtained by interpolation of the standard curves.

SMILES | IC50 (Na+2Cl−K+ co-transporter; read-out: IC50) | logP [1] | IC50 (Na+2Cl−K+ co-transporter)
CC(C)NC(=O)NS(=O)(=O)c1cnccc1NC1CCCCC1 [Compound 8] | 700 nM | 0.58 | –
O=C(NC1CCCCCCC1)NS(=O)(=O)c1cnccc1NC1CCCCCCC1 [Compound 17] | 560 nM | 2.7 | –
CC(C)NC(=S)NS(=O)(=O)c1cnccc1NC1CCCCCC1 [Compound 19] | 1300 nM | 0.96 | –
O=C(NC1CCCCCC1)NS(=O)(=O)c1cnccc1NC1CCCCC1 [Compound 12] | 9500 nM | 1.72 | –
Cc1cccc(Nc2ccncc2S(=O)(=O)NC(=O)NC(C)C)c1 [Compound 7] | 200 nM | 0.45 | –
O=C(NC1CCCCC1)NS(=O)(=O)c1cnccc1NC1CCCCC1 [Compound 9] | 19000 nM | 1.33 | –
O=C(NS(=O)(=O)c1cnccc1NC1CCCCC1)N1CCCCC1 [Compound 21] | 320 nM | 0.62 | –
O=C(NC1CCCCCCC1)NS(=O)(=O)c1cnccc1NC1CCCCCC1 [Compound 16] | 1700 nM | 2.44 | –
O=C(NC1CCCCCCC1)NS(=O)(=O)c1cnccc1NC1CCCCC1 [Compound 15] | 1400 nM | 2.07 | –
O=C(NC1CCCCC1)NS(=O)(=O)c1cnccc1NC1CCCCCCCCCCC1 [Compound 18] | > 100000 nM | 3.45 | inactive
O=C(NC1CCCCC1)NS(=O)(=O)c1cnccc1NC1CCCCCC1 [Compound 10] | 3500 nM | 1.67 | –
O=C(NC1CCCCCC1)NS(=O)(=O)c1cnccc1NC1CCCCCC1 [Compound 13] | 2800 nM | 2.06 | –
O=C(NC1CCCCC1)NS(=O)(=O)c1cnccc1NC1CCCCCCC1 [Compound 11] | 470 nM | 2.05 | –
O=C(NS(=O)(=O)c1cnccc1NC1CCCCCC1)N1CCCCC1 [Compound 22] | 250 nM | 1.24 | –
O=C(NS(=O)(=O)c1cnccc1NC1CCCCCCC1)N1CCCCC1 [Compound 23] | 150 nM | 1.65 | –
O=C(NC1CCCCCC1)NS(=O)(=O)c1cnccc1NC1CCCCCCC1 [Compound 14] | 2000 nM | 2.45 | –
O=S(=O)(NC(=S)NC1CCCCC1)c1cnccc1NC1CCCCCC1 [Compound 20] | 790 nM | 1.79 | –
